Data on three compounds can be found in paper PMC6528491 (Frontiers in Pharmacology, 2019).

Details of data set [1]: method as in 2 sources, ref Wu et al., 2005 ||| ref Li et al., 2014. The note with it: cited from earlier work.
Data set [2] deals with Caco2 cell system. The note with it: Caco-2; cited from earlier work.
The test system of data set [3] is CYP3A4. The note with it: cited from earlier work.
Data set [4] can be described thus: Clinical drug-drug interaction study, non-compartmental pharmacokinetics of CsA in blood. It counts as in vivo, healthy Chinese volunteers. The note with it: single 500 mg BG dose with 200 mg CsA; healthy volunteers; NCA.
Description: The study was a single center, open-labeled, two-period, fixed-sequence clinical trial. […] Water intake was allowed 2 h after administration of the drug. All participants were given a standardized meal 4 h after dosing. […] Blood samples were withdrawn using vacuum tubes containing EDTA-K2 and immediately transferred to labeled tubes. The samples were stored at −80°C for subsequent analysis. […] Processing of the whole blood samples involved a two-step protein precipitation. Fifty microliters of zinc sulfate (10 mM) were added to 50 μl of a sample. […] After centrifugation, an aliquot (2 μl) of the supernatant was then injected onto an ultra high-performance liquid chromatography coupled with tandem mass spectrometry (UHPLC–MS/MS) device for analysis. UHPLC–MS/MS was performed using an ExionLC™ analytical UHPLC system (AB Sciex, MA, USA), coupled with a Qtrap 4,500 mass spectrometer (AB Sciex, Framingham, MA, USA), equipped with the Turbo lonSpray interface. […] The protonated analyte ions were detected in positive ionization and multiple reaction monitoring modes. […] Calibration curves were linear over the concentration range of 10–3,000 ng/ml. […] Exploratory statistical comparisons of pharmacokinetic parameters between male and female subjects were performed by the t-test for independent data. […]
A short description of data set [5]: Population pharmacokinetic analysis of CsA (NONMEM, two-compartment model with transit compartments). It counts as in vivo, healthy Chinese volunteers. The note with it: 95% CIs from 1,000 bootstrap samples included 1.0 and were inside 0.8–1.25.
The conditions of data set [6]: cited from earlier work. The source says:
After oral administration, BG is rapidly hydrolyzed to baicalein ...

The conditions of data set [7]: intravenous high BG doses (0.23–0.90g/kg) to rats; ref Xin et al., 2013; cited from earlier work.
For data set [8] the following is noted: rats, cited from earlier work.
Data set [9] concerns P-gp. The note with it: rats; after multiple oral doses of BG; ref Tian et al., 2019; cited from earlier work.
On the set-up of data set [10]: method as in 2 sources, one per row (each row's own in cited_ref): ref Albengres and Tillement, 1992; Keogh et al., 1995 ||| ref Atiq et al., 2016. The note with it: ref Albengres and Tillement, 1992; Keogh et al., 1995; cited from earlier work.
[11] abbreviates: multiple oral administrations of BG 80 mg/kg, ref Tian et al., 2019.
[12] abbreviates: single dose of BG 136.6 mg/kg, ref Lai et al., 2004.

Each structure is given as a SMILES string. Converted amounts (≈) assume the structure as drawn. Like-named read-outs stand apart in the source and are kept apart here.

Consider `O=c1cc(-c2ccccc2)oc2cc(O)c(O)c(O)c12` [B, baicalein], for which the “Exposure to BG relative to exposure to B” value in data set [1] (B single doses to healthy volunteers, ref Li et al., 2014) is “more than 10 fold”. Besides, in data set [1] (after oral administration of 100 mg B, healthy volunteers, ref Li et al., 2014), the “AUC of BG” value was 580 ng·h/mL. For the same compound, the “Tmax for both BG and B” value in [1] (oral B, ref Li et al., 2014) is recorded as “about 1 h”. Besides, the Papp (in general, the rate of passage across a membrane or cell layer, normalised by area and donor concentration) in data set [2] was 9e-06 cm/s. The Ki – broadly, the equilibrium dissociation constant of an inhibitor or competing ligand from its target – in data set [3] is 2300 nM.

Consider `O=C(O)[C@H]1O[C@@H](Oc2cc3oc(-c4ccccc4)cc(=O)c3c(O)c2O)[C@H](O)[C@@H](O)[C@@H]1O` [BG, baicalein 7-O-glucuronide], for which, in [4], the “Effect of BG co-administration on the exposure of CsA” value is reported as “no clinically relevant effect”. In addition, the “Effect of factor BG co-treatment on popPK parameters of CsA (except Ka and Q)” value in [5] is listed as “did not affect the respective pharmacokinetic parameters of CsA to a clinically relevant extent”. Moreover, the Bound to proteins in data set [6] (human plasma, ref Tang et al., 2006) is on record as 86–92%. Also, the Solubility – broadly, how much of the substance goes into solution per volume – in data set [6] (in water, ref Wu et al., 2011) was 57 µg/mL (≈ 128 µM). In addition, the Elimination half-life in data set [6] (ref Noh et al., 2016) is listed as 6.36 ± 5.85 h. In addition, the Oral bioavailability in data set [6] (ref Wu et al., 2014) is 2.2%. Besides, the “Decrease of the clearance of midazolam” value in data set [7] is reported as “up to 43%”. Further, the “Effect on the exposure of CsA” value in data set [8] (multiple intravenous doses of BG, ref Tian et al., 2019) was “did not affect the exposure of CsA”. For the same compound, in [8] (setting [11]), the “Decrease of AUC0-∞ of CsA” value was 25% and the “Decrease of Cmax of CsA” value is recorded as 38%. In addition, the “Effect on Cmax and AUC0-∞ of CsA” value in data set [8] (oral administration of BG, ref Tian et al., 2019) is “significantly decreased”. In addition, the “Effect on exposure to CsA” value in data set [8] (ref Lai et al., 2004) is reported as “increased exposure to oral CsA”. Further, in data set [8] (setting [12]), the “Elevation of AUC of CsA compared with CsA alone” value is around 6 times and the “Elevation of Cmax of CsA compared with CsA alone” value is on record as “about 4 times”. Also, the “Effect on the pharmacokinetics of CsA” value in [8] (single intravenous dose and multiple doses of BG, ref Tian et al., 2019) is “had no effect”. Further, in [9], the “Expression of P-gp in the intestine” value is recorded as “increased” and the “Expression of P-gp in the liver” value is “not changed”. Moreover, in data set [1] (after oral administration of 750 mg BG, healthy subjects, ref Wu et al., 2005), the “AUC of BG” value was 613 ng·h/mL. Moreover, the Tmax – broadly, the time at which the peak concentration occurs – in data set [1] (oral BG, ref Wu et al., 2005) was 7.4 h. For the same compound, the Papp in data set [2] was 0.275 ± 1.14 × 10^−6 cm/s.

Regarding `CC(=O)N1CCN(c2ccc(OCC3COC(Cn4ccnc4)(c4ccc(Cl)cc4Cl)O3)cc2)CC1` (centres unmarked) [ketoconazole], the “Elevation of CsA concentrations by concomitant administration” value in data set [10] is given as “several-fold”.
